# Values quoted from earlier work as cited in patent US20230303507A1, “RIGID C[…] AS POTENT MODULATORS OF CANNABINOID RECEPTORS AND USES THEREOF” (priority 2020, published 2023).
# Biological target: CB2 (Homo sapiens, UniProt P34972)
# Sequence (P34972 whole entry, species assumed): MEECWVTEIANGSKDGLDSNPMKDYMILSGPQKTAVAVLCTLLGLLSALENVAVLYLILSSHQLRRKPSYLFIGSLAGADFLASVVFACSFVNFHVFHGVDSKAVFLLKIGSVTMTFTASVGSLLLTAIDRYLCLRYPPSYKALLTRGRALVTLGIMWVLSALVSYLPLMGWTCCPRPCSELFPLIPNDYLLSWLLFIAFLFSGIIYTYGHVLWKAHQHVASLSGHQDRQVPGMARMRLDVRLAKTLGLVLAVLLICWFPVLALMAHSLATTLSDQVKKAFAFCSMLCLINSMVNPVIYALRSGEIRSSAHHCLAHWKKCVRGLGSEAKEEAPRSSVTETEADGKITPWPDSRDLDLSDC
smiles,measurement,value
"C=C(C)[C@@H]1CCC(C)=C[C@H]1c1c(O)cc(CCCCC)cc1O [CBD, cannabidiol]",mode of action on CB2,weak inverse agonist
"CCCCCc1cc(O)c2c(c1)OC(C)(C)[C@@H]1CCC(C)=C[C@@H]21 [THC, delta-9-tetrahydrocannabinol]",mode of action on CB2,partial agonist
